Laboratory results from patent publication US12636291B2, “Compositions and methods relating to use of agonists of ALPHA5-containing GABAA receptors” (Centre for Addiction and Mental Health, priority 2019, dated 2026).

Tested on: old mice
Assay: Spontaneous alternation in the Y-Maze (working memory), normal aging
Type: in vivo, mouse
Details: GL-II-73 in drinking water 8 weeks (30 mg/kg) vs old mice vehicle (52.6%; young 79.6%), p=0.01
Excerpt: The percentage of alternation during the Y maze test can be considered as an index of working memory performance (50% of alternation corresponding to a random alternation rate). […] ANOVA analysis indicates a significant difference between all groups (F(2;25)=11.34; p=0.0003).
Animals: For the experiments described above, young (n=11, age 2 months) and old male mice (N=23) were purchased from Charles River. Old mice were obtained at the age of 9-10 months and were kept in the animal facility until they reached the age of 22 months. Young mice (2 months old) were purchased when old mice had already reached the age of 22 months. All animals were single housed. Experiments were performed on mice aged 2 months (“young”) or 22 months (“old”) at the beginning of the experimental protocol. The second set of experiments with the Washout group included 8 young mice and 22 old mice. Old mice were split into 3 groups of 7-8 between “Old”, “Old-treated” and “Old-Washout”. Finally, the pilot with the 5×FAD mice was performed with 15 heterozygote 5×FAD mice, bred in the animal facility of the Centre for Addiction and Mental Health, Toronto (ON, Canada). […]
Spontaneous alternation in the Y-Maze: Mice were tested in a Y maze test as an assessment of working memory. […] The alternation rate was calculated and was expressed as a percentage: […]

With C#Cc1ccc2c(c1)C(c1ccccc1F)=N[C@H](C)c1c(C(=O)N(C)C)ncn1-2 (stereo in doubt) [GL-II-73, 8-ethynyl-6-(2-fluorophenyl)-N,N,4-trimethyl-4H-benzo[f]imidazo[1,5-a][1,4]diazepine-3-carboxamide] the “alternation rate in the Y maze test” value was “higher alternation rate than old mice receiving only vehicle”.
